From US9637491B2, “Pyrazolo[4,3-D]pyrimidines as kinase inhibitors” (Origenis GmbH, priority 2012, dated 2017)

Biological target: T1, SYK kinase (Homo sapiens, UniProt P43405)
T1 construct: purchased Invitrogen, Carlsbad
Assay: SYK assay (OMNIA Kinase Assay, Invitrogen)
Assay type: biochemical
Details: SYK Activities; 1 mM ATP, 10 μM Omnia Peptide Substrate Tyr 7, 30° C.
Procedure, shortened: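 SYK was added last to start phosphorylation of a chelation-enhanced SOX peptide substrate (10 μM) in the presence of 1 mM ATP and 0.2 mM DTT at 30° C. Kinetic readings at λex 360/λem 485 nm over 30 min gave velocities, fitted sigmoidally against compound concentration to give IC50.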

IC50	SMILES
10 to 100 nM	c1ccc2oc(-c3nc(Nc4cnn(C5CCOCC5)c4)c4[nH]ncc4n3)nc2c1 [Example 446, 5-(benzo[d]oxazol-2-yl)-N-(1-(tetrahydro-2H-pyran-4-yl)-1H-pyrazol-4-yl)-1H-pyrazolo[4,3-d]pyrimidin-7-amine]
10 to 100 nM	COc1ccc(Nc2nc(C3CC3)nc3cn[nH]c23)cc1OC [Example 19, 5-cyclopropyl-N-(3,4-dimethoxyphenyl)-1H-pyrazolo[4,3-d]pyrimidin-7-amine]
100 to 1000 nM	CN1CCC(n2cc(Nc3nc(-c4ncco4)nc4cn[nH]c34)cn2)CC1 [Example 255, N-(1-(1-methylpiperidin-4-yl)-1H-pyrazol-4-yl)-5-(oxazol-2-yl)-1H-pyrazolo[4,3-d]pyrimidin-7-amine]
10 to 100 nM	CC(C)n1cc(Nc2nc(-c3ccc4cn[nH]c4c3)nc3cn[nH]c23)cn1 [Example 414, 5-(1H-indazol-6-yl)-N-(1-isopropyl-1H-pyrazol-4-yl)-1H-pyrazolo[4,3-d]pyrimidin-7-amine]
< 10 nM	CN1CCC(n2cc(Nc3nc(-c4ccoc4)nc4cn[nH]c34)cn2)CC1 [Example 202, 5-(furan-3-yl)-N-(1-(1-methylpiperidin-4-yl)-1H-pyrazol-4-yl)-1H-pyrazolo[4,3-d]pyrimidin-7-amine]
100 to 1000 nM	CN(C)C(=O)Cn1cc(Nc2nc(-c3ccco3)nc3cn[nH]c23)cn1 [Example 452, 2-(4-((5-(furan-2-yl)-1H-pyrazolo[4,3-d]pyrimidin-7-yl)amino)-1H-pyrazol-1-yl)-N,N-dimethylacetamide]
10 to 100 nM	NS(=O)(=O)c1cccc(-c2nc(Nc3ccc4c(c3)NC(=O)CCC4)c3[nH]ncc3n2)c1 [Example 525, 3-(7-((2-oxo-2,3,4,5-tetrahydro-1H-benzo[b]azepin-8-yl)amino)-1H-pyrazolo[4,3-d]pyrimidin-5-yl)benzenesulfonamide]
10 to 100 nM	COc1cccc(-c2nc(Nc3cnn(C4CCOCC4)c3)c3[nH]ncc3n2)c1 [Example 409, 5-(3-methoxyphenyl)-N-(1-(tetrahydro-2H-pyran-4-yl)-1H-pyrazol-4-yl)-1H-pyrazolo[4,3-d]pyrimidin-7-amine]
100 to 1000 nM	CC(C)n1ncc(Nc2nc(C3CC3)nc3cn[nH]c23)c1Cl [Example 297, N-(5-chloro-1-isopropyl-1H-pyrazol-4-yl)-5-cyclopropyl-1H-pyrazolo[4,3-d]pyrimidin-7-amine]
< 10 nM	OCCn1cc(Nc2nc(-c3ccoc3)nc3cn[nH]c23)cn1 [Example 242, 2-(4-((5-(furan-3-yl)-1H-pyrazolo[4,3-d]pyrimidin-7-yl)amino)-1H-pyrazol-1-yl)ethan-1-ol]
10 to 100 nM	c1cncc(-c2cccc(-c3nc(Nc4cnn(C5CCNC5)c4)c4[nH]ncc4n3)c2)c1 (stereo not shown) [Example 465, 5-(3-(pyridin-3-yl)phenyl)-N-(1-(pyrrolidin-3-yl)-1H-pyrazol-4-yl)-1H-pyrazolo[4,3-d]pyrimidin-7-amine]
< 10 nM	CC(C)(C)N1CCC(n2cc(Nc3nc(-c4nc5ccccc5s4)nc4cn[nH]c34)cn2)CC1 [Example 411, 5-(benzo[d]thiazol-2-yl)-N-(1-(1-(tert-butyl)piperidin-4-yl)-1H-pyrazol-4-yl)-1H-pyrazolo[4,3-d]pyrimidin-7-amine]
100 to 1000 nM	CC(C)(O)Cn1cc(Nc2nc(-c3ccco3)nc3cn[nH]c23)cn1 [Example 369, 1-(4-((5-(furan-2-yl)-1H-pyrazolo[4,3-d]pyrimidin-7-yl)amino)-1H-pyrazol-1-yl)-2-methylpropan-2-ol]
10 to 100 nM	CN1CCC(n2cc(Nc3nc(-c4nc5ccccc5s4)nc4cn[nH]c34)cn2)CC1 [Example 459, 5-(benzo[d]thiazol-2-yl)-N-(1-(1-methylpiperidin-4-yl)-1H-pyrazol-4-yl)-1H-pyrazolo[4,3-d]pyrimidin-7-amine]
100 to 1000 nM	CC(C(=O)O)n1cc(Nc2nc(-c3ccoc3)nc3cn[nH]c23)cn1 (stereo not shown) [Example 486, 2-(4-((5-(furan-3-yl)-1H-pyrazolo[4,3-d]pyrimidin-7-yl)amino)-1H-pyrazol-1-yl)propanoic acid]
< 10 nM	O=C1CCc2ccc(Nc3nc(C4CC4)nc4cn[nH]c34)cc2N1 [Example 22, 7-((5-cyclopropyl-1H-pyrazolo[4,3-d]pyrimidin-7-yl)amino)-3,4-dihydroquinolin-2(1H)-one]
100 to 1000 nM	O=C1CSc2ccc(Nc3nc(-c4ccc5cn[nH]c5c4)nc4cn[nH]c34)cc2N1 [Example 520, 6-((5-(1H-indazol-6-yl)-1H-pyrazolo[4,3-d]pyrimidin-7-yl)amino)-2H-benzo[b][1,4]thiazin-3(4H)-one]
100 to 1000 nM	CC(C)(C)c1nc(Nc2cnn(C3CC3)c2)c2[nH]ncc2n1 [Example 273, 5-(tert-butyl)-N-(1-cyclopropyl-1H-pyrazol-4-yl)-1H-pyrazolo[4,3-d]pyrimidin-7-amine]
100 to 1000 nM	COc1cccc(-c2nc(Nc3cnn(C4CC4)c3)c3[nH]ncc3n2)c1 [Example 406, N-(1-cyclopropyl-1H-pyrazol-4-yl)-5-(3-methoxyphenyl)-1H-pyrazolo[4,3-d]pyrimidin-7-amine]

IC50	SMILES
100 to 1000 nM	CC(=O)N1CCN(c2ccc(Nc3nc(C4CC4C)nc4cn[nH]c34)cc2)CC1 (stereo not shown) [Example 102, 1-(4-(4-((5-(2-methylcyclopropyl)-1H-pyrazolo[4,3-d]pyrimidin-7-yl)amino)phenyl)piperazin-1-yl)ethan-1-one]
10 to 100 nM	NS(=O)(=O)c1cccc(-c2nc(Nc3cnn(C4CCOCC4)c3)c3[nH]ncc3n2)c1 [Example 425, 3-(7-((1-(tetrahydro-2H-pyran-4-yl)-1H-pyrazol-4-yl)amino)-1H-pyrazolo[4,3-d]pyrimidin-5-yl)benzenesulfonamide]
100 to 1000 nM	CN1C(=O)COc2ccc(Nc3nc(-c4ccc5cn[nH]c5c4)nc4cn[nH]c34)cc21 [Example 470, 6-((5-(1H-indazol-6-yl)-1H-pyrazolo[4,3-d]pyrimidin-7-yl)amino)-4-methyl-2H-benzo[b][1,4]oxazin-3(4H)-one]
100 to 1000 nM	OCCn1cc(Nc2nc(-c3nc4ccccc4o3)nc3cn[nH]c23)cn1 [Example 444, 2-(4-((5-(benzo[d]oxazol-2-yl)-1H-pyrazolo[4,3-d]pyrimidin-7-yl)amino)-1H-pyrazol-1-yl)ethan-1-ol]
< 10 nM	CC(=O)N1CCN(c2ccc(Nc3nc(-c4ccc5cn[nH]c5c4)nc4cn[nH]c34)cc2)CC1 [Example 50, 1-(4-(4-((5-(1H-indazol-6-yl)-1H-pyrazolo[4,3-d]pyrimidin-7-yl)amino)phenyl)piperazin-1-yl)ethan-1-one]
10 to 100 nM	CC(C)(O)Cn1cc(Nc2nc(-c3ccco3)nc3cn[nH]c23)cn1 [Example 451, 1-(4-((5-(furan-2-yl)-1H-pyrazolo[4,3-d]pyrimidin-7-yl)amino)-1H-pyrazol-1-yl)-2-methylpropan-2-ol]
10 to 100 nM	Oc1c(Cl)cc(Nc2nc(-c3c(F)cccc3F)nc3cn[nH]c23)cc1Cl [Example 540, 2,6-dichloro-4-((5-(2,6-difluorophenyl)-1H-pyrazolo[4,3-d]pyrimidin-7-yl)amino)phenol]
10 to 100 nM	CC(C)Cn1cc(Nc2nc(-c3cccs3)nc3cn[nH]c23)cn1 [Example 432, N-(1-isobutyl-1H-pyrazol-4-yl)-5-(thiophen-2-yl)-1H-pyrazolo[4,3-d]pyrimidin-7-amine]
10 to 100 nM	COCCCn1cc(Nc2nc(C3CCC3)nc3cn[nH]c23)cn1 [Example 224, 5-cyclobutyl-N-(1-(3-methoxypropyl)-1H-pyrazol-4-yl)-1H-pyrazolo[4,3-d]pyrimidin-7-amine]
< 10 nM	FCCn1cc(Nc2nc(-c3ccc4cn[nH]c4c3)nc3cn[nH]c23)cn1 [Example 417, N-(1-(2-fluoroethyl)-1H-pyrazol-4-yl)-5-(1H-indazol-6-yl)-1H-pyrazolo[4,3-d]pyrimidin-7-amine]
100 to 1000 nM	CC(=O)N1CCC(n2cc(Nc3nc(-c4ncco4)nc4cn[nH]c34)cn2)CC1 [Example 257, 1-(4-(4-((5-(oxazol-2-yl)-1H-pyrazolo[4,3-d]pyrimidin-7-yl)amino)-1H-pyrazol-1-yl)piperidin-1-yl)ethan-1-one]
100 to 1000 nM	COc1cc(Nc2nc(-c3ccon3)nc3cn[nH]c23)ccc1N1CCOCC1 [Example 76, 5-(isoxazol-3-yl)-N-(3-methoxy-4-morpholinophenyl)-1H-pyrazolo[4,3-d]pyrimidin-7-amine]
10 to 100 nM	CC(C)(C)N1CCN(c2ccc(Nc3nc(-c4cocn4)nc4cn[nH]c34)cc2)CC1 [Example 49, N-(4-(4-(tert-butyl)piperazin-1-yl)phenyl)-5-(oxazol-4-yl)-1H-pyrazolo[4,3-d]pyrimidin-7-amine]
< 10 nM	c1nn(C2CCNC2)cc1Nc1nc(-c2ccc3cn[nH]c3c2)nc2cn[nH]c12 (stereo not shown) [Example 447, 5-(1H-indazol-6-yl)-N-(1-(pyrrolidin-3-yl)-1H-pyrazol-4-yl)-1H-pyrazolo[4,3-d]pyrimidin-7-amine]
10 to 100 nM	c1coc(-c2nc(Nc3cnn(C4CCOCC4)c3)c3[nH]ncc3n2)c1 [Example 117, 5-(furan-2-yl)-N-(1-(tetrahydro-2H-pyran-4-yl)-1H-pyrazol-4-yl)-1H-pyrazolo[4,3-d]pyrimidin-7-amine]
< 10 nM	CN1CCC(n2cc(Nc3nc(C4CCC4)nc4cn[nH]c34)cn2)CC1 [Example 206, 5-cyclobutyl-N-(1-(1-methylpiperidin-4-yl)-1H-pyrazol-4-yl)-1H-pyrazolo[4,3-d]pyrimidin-7-amine]
100 to 1000 nM	CN1C(=O)COc2ccc(Nc3nc(C4CC4)nc4cn[nH]c34)cc21 [Example 497, 6-((5-cyclopropyl-1H-pyrazolo[4,3-d]pyrimidin-7-yl)amino)-4-methyl-2H-benzo[b][1,4]oxazin-3(4H)-one]
< 10 nM	CN1CCC(n2cc(Nc3nc(-c4cccs4)nc4cn[nH]c34)cn2)CC1 [Example 433, N-(1-(1-methylpiperidin-4-yl)-1H-pyrazol-4-yl)-5-(thiophen-2-yl)-1H-pyrazolo[4,3-d]pyrimidin-7-amine]
